{
  "source": "patent US20250044294A1",
  "about": "“COMPOSITION AND METHOD OF TREATING A CANCER THROUGH AFFECTING MEMBRANE RECEPTORS OF CANCER CELLS AND THEIR DERIVED EXTRACELLULAR VESICLES” (National Yang Ming Chiao Tung University, priority 2023, published 2025)",
  "key": {"AKT activation [1]": {"test_system": "AKT activation", "test": "Western blotting of AKT activation in NSCLC cells (A549)", "type": "cell-based, human", "conditions": "15 μM 30 min, pre-treatment and post-treatment, EGF 10 ng/mL 15 min", "quoted_text": "DMSO was used as a vehicle control. For EGF stimulation, cells were incubated with 10 ng/mL with continuous drugs treatment for 15 min at 37° C.\nCells or EVs were lysed in RIPA lysis buffer (containing 50 mM Tris-HCl, 1% NP-40, 150 mM NaCl, 0.1% SDS, 1 mM PMSF, 1 mM Na3VO4) with complete protease and protease inhibitor cocktail (1:1000) (Sigma-Aldrich). The protein quantitation is analyzed by comparing to 2 mg/ml Bovine serum albumin (BSA). Prepare the cell sample with one-tenth of dilution and the EV sample without dilution. Next, prepare all sample to 30 ul then put 10 μl each well in 96-well plates. Protein concentrations were then determined using the BCA assay kit (Thermo, USA) according to the manufacturer's instructions. Then, the same amounts of protein lysates from cells and EVs were loaded onto 8-12% SDS polyacrylamide gels and subjected to electrophoresis at 80-100 V, followed by transferring the proteins to 0.22 or 0.45 μm poly-vinylidene fluoride membranes (Millipore). The membranes were blocked with 5% skimmed milk in PBST (Tris-buffered saline containing Tween-20) for 1 h at room temperature and then washed 3 times (10 minutes for each time) with TBST (1M Tris-HCL pH7.5, NaCl, Tween 20 in ddH2O). […] The membrane was exposed using enhanced chemiluminescence reagents and analyzed using the Fujifilm LAS4000 luminescent image analysis system."}, "AKT activation [2]": {"test_system": "AKT activation", "test": "Western blotting of AKT activation in PDAC cells", "type": "cell-based, human", "conditions": "20 μM, 6 hours", "experimental": "Cells or EVs were lysed in RIPA lysis buffer (containing 50 mM Tris-HCl, 1% NP-40, 150 mM NaCl, 0.1% SDS, 1 mM PMSF, 1 mM Na3VO4) with complete protease and […] (1:1000) (Sigma-Aldrich). The protein quantitation is analyzed by comparing to 2 mg/ml Bovine serum albumin (BSA). Prepare the cell sample with one-tenth of dilution and the EV sample without dilution. Next, prepare all sample to 30 ul then put 10 μl each well in 96-well plates. Protein concentrations were then determined using the BCA assay kit (Thermo, USA) according to the manufacturer's instructions. Then, the same amounts of protein lysates from cells and EVs were loaded onto 8-12% SDS polyacrylamide gels and subjected to electrophoresis at 80-100 V, followed by transferring the proteins to 0.22 or 0.45 μm poly-vinylidene fluoride membranes (Millipore). The membranes were blocked with 5% skimmed milk in […] (Tris-buffered saline containing Tween-20) for 1 h at room temperature and then washed 3 times (10 minutes for each time) with TBST (1M Tris-HCL pH7.5, NaCl, Tween 20 in ddH2O). After the step of washing, probed with antibodies specific for EV-enriched markers at […] overnight. […] The membrane was exposed using enhanced chemiluminescence reagents and analyzed using the Fujifilm LAS4000 luminescent image analysis system. […]"}, "[3]": {"molecular_target": "T1, EGFR-HER2 protein-protein interactions (Homo sapiens, UniProt P00533+P04626)", "T1 construct": "endogenous in cells; host or cells: HSC3 and SAS cells", "type": "cell-based", "conditions": "HSC3 and SAS; pre-treatment 15 μM 30 min, then EGF 10 ng/mL 15 min"}, "[4]": {"molecular_target": "T2, EGFR-MET protein-protein interactions (Homo sapiens, UniProt P00533+P08581)", "T2 construct": "endogenous in cells; host or cells: HSC3 cells", "T2 sequence (P00533 25-1210)": "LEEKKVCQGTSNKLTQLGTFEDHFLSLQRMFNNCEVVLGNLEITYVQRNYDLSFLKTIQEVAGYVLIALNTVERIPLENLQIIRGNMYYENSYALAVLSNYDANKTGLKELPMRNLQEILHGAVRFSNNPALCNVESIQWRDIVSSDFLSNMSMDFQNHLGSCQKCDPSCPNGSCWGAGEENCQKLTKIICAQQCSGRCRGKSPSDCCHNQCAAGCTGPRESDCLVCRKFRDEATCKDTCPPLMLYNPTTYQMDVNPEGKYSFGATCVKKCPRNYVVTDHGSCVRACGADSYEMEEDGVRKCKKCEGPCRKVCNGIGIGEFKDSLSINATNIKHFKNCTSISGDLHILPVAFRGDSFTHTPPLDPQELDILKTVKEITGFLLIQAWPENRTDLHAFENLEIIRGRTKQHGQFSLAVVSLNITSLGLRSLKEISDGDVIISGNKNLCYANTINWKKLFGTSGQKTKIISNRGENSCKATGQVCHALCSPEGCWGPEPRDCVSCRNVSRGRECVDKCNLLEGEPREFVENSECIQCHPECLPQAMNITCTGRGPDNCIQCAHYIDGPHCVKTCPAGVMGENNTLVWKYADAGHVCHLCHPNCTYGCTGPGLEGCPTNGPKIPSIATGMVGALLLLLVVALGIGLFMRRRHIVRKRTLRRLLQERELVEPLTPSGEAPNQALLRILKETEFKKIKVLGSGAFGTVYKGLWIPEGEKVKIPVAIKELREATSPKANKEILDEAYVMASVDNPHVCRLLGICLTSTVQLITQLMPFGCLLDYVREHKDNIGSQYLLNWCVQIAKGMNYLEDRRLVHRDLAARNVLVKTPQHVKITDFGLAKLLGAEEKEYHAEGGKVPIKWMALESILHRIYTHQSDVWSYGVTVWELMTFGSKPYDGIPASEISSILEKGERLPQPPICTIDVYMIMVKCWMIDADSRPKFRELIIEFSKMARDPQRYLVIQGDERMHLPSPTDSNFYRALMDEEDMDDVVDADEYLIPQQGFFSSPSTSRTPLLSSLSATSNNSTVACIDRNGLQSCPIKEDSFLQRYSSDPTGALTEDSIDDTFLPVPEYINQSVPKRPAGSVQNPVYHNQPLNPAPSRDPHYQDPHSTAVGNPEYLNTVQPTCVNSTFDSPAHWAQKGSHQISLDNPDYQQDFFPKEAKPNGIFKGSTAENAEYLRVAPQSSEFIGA", "T2 sequence (P08581 308-1390 limits assumed)": "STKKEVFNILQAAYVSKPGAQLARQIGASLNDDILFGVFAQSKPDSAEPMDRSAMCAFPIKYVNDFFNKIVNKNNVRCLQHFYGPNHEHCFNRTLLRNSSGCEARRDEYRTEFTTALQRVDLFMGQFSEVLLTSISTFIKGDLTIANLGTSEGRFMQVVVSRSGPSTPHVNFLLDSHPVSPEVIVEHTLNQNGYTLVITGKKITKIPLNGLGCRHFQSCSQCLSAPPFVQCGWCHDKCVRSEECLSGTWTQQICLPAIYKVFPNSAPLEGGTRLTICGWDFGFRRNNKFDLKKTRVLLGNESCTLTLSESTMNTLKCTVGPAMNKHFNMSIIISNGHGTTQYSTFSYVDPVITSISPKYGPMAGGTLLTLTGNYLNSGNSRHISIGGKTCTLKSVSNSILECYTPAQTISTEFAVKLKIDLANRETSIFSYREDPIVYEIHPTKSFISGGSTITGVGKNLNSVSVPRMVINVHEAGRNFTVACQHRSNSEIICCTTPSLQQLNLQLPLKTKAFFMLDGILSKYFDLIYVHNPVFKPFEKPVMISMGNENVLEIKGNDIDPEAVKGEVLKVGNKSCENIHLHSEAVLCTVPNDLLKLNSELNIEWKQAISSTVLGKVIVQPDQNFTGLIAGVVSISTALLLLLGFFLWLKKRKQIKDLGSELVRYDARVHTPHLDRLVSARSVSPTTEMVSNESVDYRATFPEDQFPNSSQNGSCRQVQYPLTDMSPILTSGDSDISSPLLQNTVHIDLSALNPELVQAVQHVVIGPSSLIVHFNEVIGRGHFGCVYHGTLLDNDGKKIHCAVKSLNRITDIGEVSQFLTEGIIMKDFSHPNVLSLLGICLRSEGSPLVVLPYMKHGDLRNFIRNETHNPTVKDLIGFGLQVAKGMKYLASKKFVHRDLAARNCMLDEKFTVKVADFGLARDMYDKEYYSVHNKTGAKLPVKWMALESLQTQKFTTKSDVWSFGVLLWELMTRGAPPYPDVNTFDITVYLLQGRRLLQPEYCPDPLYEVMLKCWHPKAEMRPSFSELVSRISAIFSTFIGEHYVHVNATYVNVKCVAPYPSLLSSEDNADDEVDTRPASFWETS", "type": "cell-based", "conditions": "HSC3; pre-treatment 15 μM 30 min, then EGF 10 ng/mL 15 min"}, "[5]": {"test_system": "3R-4 and 3R-5-1 tumoroids", "test": "Protein expression in pancreatic cancer patient-derived tumoroids (western blotting, immunofluorescence)", "type": "cell-based, human", "conditions": "72-hour treatment"}, "[6]": {"test_system": "PDAC cells (BxPC-3, PANC-1, AsPC-1)", "test": "Transwell migration assay of PDAC cells", "type": "cell-based, human", "conditions": "compared to gemcitabine treatment"}, "[7]": {"test_system": "H6C7 cells and WI-38 cells", "test": "Co-culture cell migration with PDAC-derived secretomes", "type": "cell-based, human", "experimental": "In the transwell migration assay, cells were seeded in upper chambers of Transwell plates (Transwell® Permeable Support, 6.5 mm insert, 24 well plate, 8.0 μm pore polyester membrane with sterile, Corning, #3464) in serum-free (SF) medium and seeded 5×10^4-1×10^5 cells per well, while lower chambers were added medium with 10% FBS as an attractant. Drugs were treated in both upper and lower chambers, and incubated on the 24-well plate at 37° C. for 16-24 hours. The cells were fix with 4% paraformaldehyde (PFA, SIGMA, #F8775) for 10 minutes and staining with 1% crystal violet (MERCK, 1 g Crystal violet powder dissolved in 75 ml ddH2O and 25 ml […] then filters by 0.45 μm filter) for 0.5 hours. After drying the insert completely, take at least 3 cell pictures randomly in every sample by microscope and count the number of cells by Image J.\nTo initiate this exploration, a transwell migration assay in vitro was performed to assess the migration ability of PDAC cells. […] To achieve this, a co-culture cell migration system was established to examine the behavioral changes in normal cells treated with PDAC-derived secretomes.\nFor the cell line selection, the H6C7 cell line, derived from normal human pancreatic duct epithelial (HPDE) cells and immortalized, was employed to investigate the interactions between PDAC cells and human pancreatic duct cells. This cell line serves as a valuable tool for studying the molecular and cellular interactions that occur between PDAC cells and their surrounding pancreatic ductal epithelial cells. Additionally, to simulate the lung tissue environment and validate PDAC cells with high metastatic potential to the lung, human lung fibroblasts known as WI-38 cells were chosen as a relative normal cell model. By utilizing this model, the interactions between PDAC cells and the lung microenvironment can be examined and assessed."}, "[8]": {"test_system": "integrin α6/β4 on BxPC-3-derived EVs", "test": "Laminin coating wound healing assay with BxPC-3-derived EVs", "type": "cell-based, human", "conditions": "laminin coating 1 μg/cm^2; EVs from PCP-treated BxPC-3 cells", "experimental": "The culture inserts (ibidi, #80209) was put on 6 well dishes (2 inserts for each well), irradiated UV for 20 minutes and cells were seeded into the well of the insert and incubating 24 hours. The insert was removed gently and washed twice with PBS to remove the old medium and cell and be observed the gap which was formed by the insert through the microscope and captured the picture of the gap at 0 hours. After I captured of the gap, different treatments were added and incubated for 16 hours. The result was observed by the microscope and quantified by Image J.\nIn this assay, H6C7 cells were seeded in the wound healing inserts with or without 1 μg/cm^2 laminin coating in the six-well plate. Once the cells were attached, the wound healing inserts were removed, and H6C7 cells were exposed to BxPC-3-derived EVs and PCP-treated BxPC-3 cell-derived EVs."}, "BEAS-2B and CL141 cells": {"test_system": "BEAS-2B and CL141 cells", "test": "Transwell cell migration with NSCLC-derived secretomes and EVs", "type": "cell-based, human"}, "BxPC-3 cells": {"test_system": "BxPC-3 cells", "test": "Laminin-induced cell proliferation (SRB)", "type": "cell-based, human", "conditions": "48 hours"}, "integrin α6/β4": {"test_system": "integrin α6/β4", "test": "Western blotting of integrin α6/β4 on PDAC-derived EVs", "type": "cell-based, human", "conditions": "EVs derived from BxPC-3 and PANC-1 cells; short-term treatment"}, "BxPC-3 cell-derived EVs": {"test_system": "BxPC-3 cell-derived EVs", "test": "NanoFCM analysis of EV subpopulations from BxPC-3 cells", "type": "cell-based, human", "experimental": "EV samples containing 3×10^9 particles were incubated with diluted antibodies (1:1000), including FITC-anti-CD9 antibodies, PE-anti-CD63 antibodies, and APC-anti-integrin β4 antibodies, for 30 minutes in a 37° C. water bath. Following the incubation period, an Amicon® Ultra Centrifugal Filter with a 100 kDa molecular weight cutoff (MWCO) was used and rinsed with 1× PBS buffer. The samples were centrifuged at 4000×g for 5 minutes, with the centrifugation process repeated three times. After centrifugation, the samples were retrieved and diluted 10-100 times for detecting the expression levels of EV surface proteins by NanoFCM. The results were analyzed using Kaluza Analysis Software."}, "[9]": {"molecular_target": "T3, EGFR-p-EGFR protein-protein interactions (Homo sapiens, UniProt P00533)", "T3 sequence (P00533 25-1210)": "as the sequence (P00533 25-1210) above", "test": "Proximity ligation assay in PDAC cells (BxPC-3)", "type": "cell-based", "parameters": "endogenous in cells", "conditions": "pre-treatment 15 μM 30 min, then EGF 10 ng/mL 15 min"}, "[10]": {"molecular_target": "T3, EGFR-p-EGFR protein-protein interactions", "type": "cell-based", "parameters": "endogenous in cells; host or cells: HSC3 and SAS cells", "conditions": "HSC3 and SAS; pre-treatment 15 μM 30 min, then EGF 10 ng/mL 15 min"}, "[11]": {"conditions": "3R-4 tumoroids, western blotting"}},
  "note": "Read-outs that look alike come from different tables or passages of the source.",
  "data": [
    {"smiles": "CN1CCN(CCCN2c3ccccc3Sc3ccc(Cl)cc32)CC1", "note": "[PCP, Prochlorperazine]", "values": [
      {"measurement": "AKT activation", "setting": "AKT activation [1]", "value": "effectively suppressed AKT activation"},
      {"measurement": "AKT activation", "setting": "AKT activation [2]", "value": "suppressed AKT activation"},
      {"measurement": "EGFR-HER2 protein-protein interactions", "setting": "[3]", "value": "could suppress EGFR-HER2 protein-protein interactions"},
      {"measurement": "EGFR-MET protein-protein interactions", "setting": "[4]", "value": "could suppress EGFR-MET protein-protein interactions"},
      {"measurement": "expression levels of CD9 and integrin β4", "setting": "[5]; 3R-4 and 3R-5-1 tumoroids, immunofluorescence", "value": "also inhibited the expression levels of CD9 and integrin β4"},
      {"measurement": "expression levels of GPC1", "setting": "[5]; [11]", "value": "unchanged expression levels of GPC1"},
      {"measurement": "expression levels of integrin α6/β4, CD9, EGFR, HER2, HER3", "setting": "[5]; [11]", "value": "inhibited the expression levels"},
      {"measurement": "migration ability of PDAC cells", "setting": "[6]", "value": "significantly suppressed"},
      {"measurement": "migratory capability of WI-38 cells", "setting": "[7]; AsPC-1-derived secretomes", "value": "comparatively weaker effect"},
      {"measurement": "migratory capability of WI-38 cells", "setting": "[7]; BxPC-3-derived secretomes", "value": "strongest inhibition"},
      {"measurement": "migratory capability of WI-38 cells", "setting": "[7]; PANC-1-derived secretomes", "value": "least effect"},
      {"measurement": "migratory behavior of H6C7 cells", "setting": "[7]; co-culture with BxPC-3-derived secretomes", "value": "significantly suppressed"},
      {"measurement": "functional activity of integrin α6/β4 on EVs (migration of H6C7 cells)", "setting": "[8]", "value": "significantly inhibited"},
      {"measurement": "migratory capability induced by NSCLC-derived secretomes", "setting": "BEAS-2B and CL141 cells; BEAS-2B and CL141, secretomes from H441 cells", "value": "inhibitory effect"},
      {"measurement": "migratory capability induced by NSCLC-derived EVs", "setting": "BEAS-2B and CL141 cells; treated cells with NSCLC-derived EVs", "value": "could downregulate this increased migratory capability"},
      {"measurement": "laminin-induced cell proliferation rate", "setting": "BxPC-3 cells; 1 μg/cm^2 laminin", "value": "reversed the increased cell proliferation rate"},
      {"measurement": "drug sensitivity to PCP after laminin binding", "setting": "BxPC-3 cells; compared to the vehicle group", "value": "significantly higher increase in drug sensitivity"},
      {"measurement": "integrin α6/β4 protein expression on EVs", "setting": "integrin α6/β4", "value": "inhibited integrin α6/β4 protein expression"},
      {"measurement": "co-expression levels of CD9 and integrin β4 proteins on ITGB4+CD9+ EVs", "setting": "BxPC-3 cell-derived EVs", "value": "downregulated"},
      {"measurement": "secretion of CD9-EVs", "setting": "BxPC-3 cell-derived EVs", "value": "significantly downregulated"},
      {"measurement": "secretion of CD63-EVs", "setting": "BxPC-3 cell-derived EVs", "value": "upregulating"},
      {"measurement": "secretion of ITGB4+CD9+ EVs", "setting": "BxPC-3 cell-derived EVs", "value": "significantly suppressed"},
      {"measurement": "EGFR-p-EGFR protein-protein interactions", "setting": "[9]", "value": "could suppress"},
      {"measurement": "EGFR-p-EGFR protein-protein interactions", "setting": "[10]", "value": "could suppress EGFR-p-EGFR protein-protein interactions"}
    ]}
  ]
}
